Experimental data from patent US12195427B2, “MASP-2 inhibitors and methods of use” (priority 2018, dated 2025).

Molecular target: MASP-2 CCP2-SP (Homo sapiens (Human), UniProt O00187)
Experiment: MASP-2 co-crystallization, X-ray crystallography and structure analysis (H-bonds, van der Waals contacts);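 on Ligand-pharmacophore element distance, pharmacophore element C2: distance from averaged pharmacophore element to bound ligand; missing value means element absent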;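 on Ligand-pharmacophore element distance, pharmacophore element C3: distance from averaged pharmacophore element to bound ligand; missing value means element absent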;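 on Ligand-pharmacophore element distance, pharmacophore element C4: distance from averaged pharmacophore element to bound ligand; missing value means element absent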;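 on Ligand-pharmacophore element distance, pharmacophore element C5: distance from averaged pharmacophore element to bound ligand; missing value means element absent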
Parameters: van der Waals contact distance, MASP-2 HIS 483 atom CD2 / van der Waals contact distance, MASP-2 HIS 483 atom NE2 / van der Waals contact distance, SER 654 C to compound atom / van der Waals contact distance, SER 654 O to compound atom / van der Waals contact distance, TRP 655 C to compound atom / van der Waals contact distance, MASP-2 GLY 528 atom CA / van der Waals contact distance TRP 655 atom CZ3 / van der Waals contact distance TRP 655 atom N / van der Waals contact distance TRP 655 atom CE3 / van der Waals contact distance GLY 656 atom C / van der Waals contact distance GLY 656 atom CA / van der Waals contact distance GLY 656 atom O / van der Waals contact distance, MASP-2 TYR 607 atom CD1 / van der Waals contact distance, MASP-2 PRO 606 atom O / d(C3,CA1) / d(CA1,N1)2 / d(H4,O1) / d(H4,O2) / d(O1,O2) / d(CA1,O2) / d(CA6,O1) / d(CA6,O2) / d(CA1,C5) / d(O2,H3) / d(N2,C2) / d(CA5,N2) / d(N2,C4) / d(N2,C6) / d(N2,CA3) / d(N2,O3) / d(O4,H2): unit not given beside the values
Conditions: for Ligand-pharmacophore element distance, pharmacophore element C2 / Ligand-pharmacophore element distance, pharmacophore element C3 / Ligand-pharmacophore element distance, pharmacophore element C4 / Ligand-pharmacophore element distance, pharmacophore element C5 / Ligand-pharmacophore element distance, pharmacophore element C6 / Ligand-pharmacophore element distance, pharmacophore element C7 / Ligand-pharmacophore element distance, pharmacophore element CA1 / Ligand-pharmacophore element distance, pharmacophore element CA2 / Ligand-pharmacophore element distance, pharmacophore element CA3 / Ligand-pharmacophore element distance, pharmacophore element CA4 / Ligand-pharmacophore element distance, pharmacophore element CA5 / Ligand-pharmacophore element distance, pharmacophore element CA6: Table A4-1; for d(CA1,C5) / d(CA1,O1) / d(CA1,O2) / d(CA1,O4) / d(H4,O1) / d(H4,O2) / d(O1,O2) / d(O4,H2): Table A5-1 pharmacophore: distance between elements, S2/S1 region; for d(N2,C2) / d(N2,CA2) / d(O2,H3) / d(O2,N2): Table A5-2 pharmacophore distance, S3/S4 region; for a(C5, CA1, O1) / a(CA1, O1, O2) / a(CA1, O4, H2) / a(O1, CA1, O4) / a(O1, O2, H4): Table A6-1 pharmacophore angle; for a(O1, O2, H3) / a(O1, O2, N2) / a(O2, N2, C2) / a(O2, N2, CA2): Table A6-2 pharmacophore angle; for Pharmacophore torsion angle a(O1, O2, N2, CA2): Table A7-2
In short: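 Human MASP-2 CCP2-SP, untagged or 6His-tagged, was expressed in E. coli and crystallized. Crystals were soaked with inhibitor in crystallization solution, flash-cooled in liquid nitrogen, and diffracted with synchrotron X-rays (wavelength 1.0). Structures were solved by molecular replacement from 1Q3X and partially refined.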

[1] = Table A7-1, between pharmacophore elements of the bound compound
[2] = between pharmacophore elements of the bound compound
[3] = Table A8-6, nearest protein atom in cell to the left

MASP-2 CCP2-SP, sequence (O00187 445-686): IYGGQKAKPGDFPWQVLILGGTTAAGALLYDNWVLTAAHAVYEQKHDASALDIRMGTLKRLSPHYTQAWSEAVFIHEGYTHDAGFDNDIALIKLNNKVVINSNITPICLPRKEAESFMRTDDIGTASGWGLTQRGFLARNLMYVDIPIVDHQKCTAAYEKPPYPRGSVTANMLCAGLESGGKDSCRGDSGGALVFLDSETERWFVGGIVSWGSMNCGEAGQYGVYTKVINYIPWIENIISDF
MASP-2 CCP2-SP, sequence (O00187 364-432 partner): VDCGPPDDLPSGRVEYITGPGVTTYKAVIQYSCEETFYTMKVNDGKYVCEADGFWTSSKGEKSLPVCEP

C[C@H](NC(=O)[C@H]1C[C@@H](c2ccccc2)CCN1)C(=O)NCc1cc(Cl)ccc1O.Cl [1078_15]
Ligand-pharmacophore element distance, pharmacophore element C2: 0.81
Ligand-pharmacophore element distance, pharmacophore element C3: 0
Ligand-pharmacophore element distance, pharmacophore element C4: 0
Ligand-pharmacophore element distance, pharmacophore element C5: 0.43
Ligand-pharmacophore element distance, pharmacophore element C6: 0
Ligand-pharmacophore element distance, pharmacophore element C7: 0
Ligand-pharmacophore element distance, pharmacophore element CA1: 1.56
Ligand-pharmacophore element distance, pharmacophore element CA2: 0.65
Ligand-pharmacophore element distance, pharmacophore element CA3: 0
Ligand-pharmacophore element distance, pharmacophore element CA4: 0
Ligand-pharmacophore element distance, pharmacophore element CA5: 0
Ligand-pharmacophore element distance, pharmacophore element CA6: 0
d(CA1,C5): 3.13
d(CA1,O1): 4.59
d(CA1,O2): 4.59
d(CA1,O4): 2.74
d(H4,O1): 2.66
d(H4,O2): 2.49
d(O1,O2): 2.93
d(O4,H2): 0.97
d(N2,C2): 1.45
d(N2,CA2): 5.66
d(O2,H3): 2.97
d(O2,N2): 2.84
a(C5, CA1, O1): 160.41
a(CA1, O1, O2): 108.62
a(CA1, O4, H2): 127.31
a(O1, CA1, O4): 65.89
a(O1, O2, H4): 110.90
a(O1, O2, H3): 143.22
a(O1, O2, N2): 147.42
a(O2, N2, C2): 124.17
a(O2, N2, CA2): 155.02
Pharmacophore torsion angle a(C5, CA1, O1, H4) [1]: 19.98
Pharmacophore torsion angle a(H4, O1, O2, H3) [1]: −124.63
Pharmacophore torsion angle a(H4, O1, O2, N2) [1]: −117.88
Pharmacophore torsion angle a(O1, H4, O2, CA1) [1]: −64.96
Pharmacophore torsion angle a(O1, O2, N2, C2) [1]: 139.14
Pharmacophore torsion angle a(O1, O2, N2, C2)2 [1]: 139.34
Pharmacophore torsion angle a(O1, O2, N2, CA2) [2]: 141.63

C[C@H](NC(=O)[C@H]1C[C@@H](c2ccccc2)CCN1)C(=O)NCc1cc(Cl)ccc1O.Cl [1078_10]
Ligand-pharmacophore element distance, pharmacophore element C2: 0.49
Ligand-pharmacophore element distance, pharmacophore element C3: 0
Ligand-pharmacophore element distance, pharmacophore element C4: 0
Ligand-pharmacophore element distance, pharmacophore element C5: 0.3
Ligand-pharmacophore element distance, pharmacophore element C6: 0
Ligand-pharmacophore element distance, pharmacophore element C7: 0
Ligand-pharmacophore element distance, pharmacophore element CA1: 1.34
Ligand-pharmacophore element distance, pharmacophore element CA2: 0.49
Ligand-pharmacophore element distance, pharmacophore element CA3: 0
Ligand-pharmacophore element distance, pharmacophore element CA4: 0
Ligand-pharmacophore element distance, pharmacophore element CA5: 0
Ligand-pharmacophore element distance, pharmacophore element CA6: 0
d(CA1,C5): 3.12
d(CA1,O1): 4.35
d(CA1,O2): 4.37
d(CA1,O4): 2.76
d(H4,O1): 3.11
d(H4,O2): 3.46
d(O1,O2): 2.72
d(O4,H2): 0.97
d(N2,C2): 1.48
d(N2,CA2): 5.72
d(O2,H3): 1.97
d(O2,N2): 2.74
a(C5, CA1, O1): 160.63
a(CA1, O1, O2): 108.49
a(CA1, O4, H2): 127.01
a(O1, CA1, O4): 71.55
a(O1, O2, H4): 131.53
a(O1, O2, H3): 146.00
a(O1, O2, N2): 152.80
a(O2, N2, C2): 131.78
a(O2, N2, CA2): 156.19
Pharmacophore torsion angle a(C5, CA1, O1, H4) [1]: −9.97
Pharmacophore torsion angle a(H4, O1, O2, H3) [1]: −152.67
Pharmacophore torsion angle a(H4, O1, O2, N2) [1]: −164.78
Pharmacophore torsion angle a(O1, H4, O2, CA1) [1]: −84.11
Pharmacophore torsion angle a(O1, O2, N2, C2) [1]: 123.40
Pharmacophore torsion angle a(O1, O2, N2, CA2) [2]: 136.18
Pharmacophore protein distance to MET_658 (first MET_658 column) (Table A8-6, 6th residue column, nearest protein atom in cell to the left): 3.04
Pharmacophore protein distance to MET_658 (second MET_658 column) (Table A8-6, 9th residue column, nearest protein atom in cell to the left): 3.81
Pharmacophore protein distance to GLY_528 [3]: 3.40
Pharmacophore protein distance to PHE_529 [3]: 3.08
Pharmacophore protein distance to PRO_608 [3]: 3.66
Pharmacophore protein distance to SER_611 [3]: 2.78
Pharmacophore protein distance to TRP_655 (Table A8-6, pharmacophore elements C6, CA3, O3, H1, nearest protein atom in cell to the left): 3.89

C[C@H](NC(=O)[C@H]1C[C@@H](c2ccccc2)CCN1)C(=O)NCc1cc(Cl)ccc1O.Cl [1078_12]
Ligand-pharmacophore element distance, pharmacophore element C2: 0.4
Ligand-pharmacophore element distance, pharmacophore element C3: 0
Ligand-pharmacophore element distance, pharmacophore element C4: 0
Ligand-pharmacophore element distance, pharmacophore element C5: 0.52
Ligand-pharmacophore element distance, pharmacophore element C6: 0
Ligand-pharmacophore element distance, pharmacophore element C7: 0
Ligand-pharmacophore element distance, pharmacophore element CA1: 1.43
Ligand-pharmacophore element distance, pharmacophore element CA2: 0.64
Ligand-pharmacophore element distance, pharmacophore element CA3: 0
Ligand-pharmacophore element distance, pharmacophore element CA4: 0
Ligand-pharmacophore element distance, pharmacophore element CA5: 0
Ligand-pharmacophore element distance, pharmacophore element CA6: 0
d(CA1,C5): 3.12
d(CA1,O1): 4.34
d(CA1,O2): 4.51
d(CA1,O4): 2.74
d(H4,O1): 3.08
d(H4,O2): 3.40
d(O1,O2): 2.81
d(O4,H2): 0.98
d(N2,C2): 1.45
d(N2,CA2): 5.74
d(O2,H3): 2.85
d(O2,N2): 2.84
a(C5, CA1, O1): 161.92
a(CA1, O1, O2): 111.74
a(CA1, O4, H2): 127.55
a(O1, CA1, O4): 67.44
a(O1, O2, H4): 128.90
a(O1, O2, H3): 150.80
a(O1, O2, N2): 154.56
a(O2, N2, C2): 130.32
a(O2, N2, CA2): 157.60
Pharmacophore torsion angle a(C5, CA1, O1, H4) [1]: 11.21
Pharmacophore torsion angle a(H4, O1, O2, H3) [1]: −120.32
Pharmacophore torsion angle a(H4, O1, O2, N2) [1]: −108.09
Pharmacophore torsion angle a(O1, H4, O2, CA1) [1]: −75.33
Pharmacophore torsion angle a(O1, O2, N2, C2) [1]: 114.97
Pharmacophore torsion angle a(O1, O2, N2, CA2) [2]: 110.39
